These results are taken from PMC9639207 (RSC Advances, 2022).

As usually defined, the half-life is the time in which the quantity being followed falls by half. Read a high half-life as slow loss.

In data set [1] the target is dipeptidyl peptidase-IV (DPP-IV) (Homo sapiens, UniProt P27487). Kind of data set: In vitro proteolytic stability against DPP-IV. It is filed as in vitro ADME. The settings on record: for half-life: isolated enzyme dpp iv, pH 7.4.
A short description of data set [2]: In vitro stability on incubation with mouse serum. It is filed as in vitro ADME. The note with it: for half-life at 200 µM: mouse, serum.

dipeptidyl peptidase-IV (DPP-IV), sequence (P27487 whole entry, species assumed): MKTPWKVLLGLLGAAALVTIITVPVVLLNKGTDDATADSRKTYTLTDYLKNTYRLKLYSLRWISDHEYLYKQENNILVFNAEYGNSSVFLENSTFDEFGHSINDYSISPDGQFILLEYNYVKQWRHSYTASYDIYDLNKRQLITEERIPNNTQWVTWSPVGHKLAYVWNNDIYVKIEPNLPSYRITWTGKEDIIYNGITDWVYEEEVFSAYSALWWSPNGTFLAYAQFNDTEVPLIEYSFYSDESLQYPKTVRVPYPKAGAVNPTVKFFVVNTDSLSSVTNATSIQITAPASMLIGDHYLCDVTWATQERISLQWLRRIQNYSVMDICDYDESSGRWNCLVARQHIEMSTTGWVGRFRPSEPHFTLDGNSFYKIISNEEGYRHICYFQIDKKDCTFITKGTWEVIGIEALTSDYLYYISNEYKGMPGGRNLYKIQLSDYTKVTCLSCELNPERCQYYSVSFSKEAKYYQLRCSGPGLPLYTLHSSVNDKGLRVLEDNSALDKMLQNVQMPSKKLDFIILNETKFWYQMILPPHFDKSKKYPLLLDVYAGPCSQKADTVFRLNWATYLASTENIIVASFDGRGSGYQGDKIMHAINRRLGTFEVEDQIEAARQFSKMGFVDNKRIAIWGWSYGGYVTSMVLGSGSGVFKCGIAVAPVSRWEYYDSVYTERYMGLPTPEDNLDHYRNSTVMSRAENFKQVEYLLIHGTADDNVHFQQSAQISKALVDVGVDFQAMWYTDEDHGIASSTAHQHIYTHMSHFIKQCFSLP

Compound `CC[C@H](C)[C@H](NC(=O)[C@H](Cc1ccccc1)NC(=O)[C@H](CCC(=O)O)NC(=O)[C@H](CCCCN)NC(=O)[C@H](C)NC(=O)[C@H](C)NC(=O)[C@H](CCC(N)=O)NC(=O)CNC(=O)[C@H](CCC(=O)O)NC(=O)[C@H](CC(C)C)NC(=O)[C@H](Cc1ccc(O)cc1)NC(=O)[C@H](CO)NC(=O)[C@H](CO)NC(=O)[C@@H](NC(=O)[C@H](CC(=O)N[C@@H]1O[C@H](CO)[C@@H](O)[C@H](O)[C@H]1O)NC(=O)[C@H](CO)NC(=O)[C@@H](NC(=O)[C@H](Cc1ccccc1)NC(=O)[C@@H](NC(=O)CNC(=O)[C@H](CCC(=O)O)NC(=O)[C@H](C)NC(=O)[C@@H](N)Cc1c[nH]cn1)[C@@H](C)O)[C@@H](C)O)C(C)C)C(=O)N[C@@H](C)C(=O)N[C@@H](Cc1c[nH]c2ccccc12)C(=O)N[C@@H](CC(C)C)C(=O)N[C@H](C(=O)N[C@@H](CCCCN)C(=O)NCC(=O)N[C@@H](CCCNC(=N)N)C(=O)NCC(=O)O)C(C)C` [Glc-GLP-1-1] showed a half-life in data set [1] of 0.503 ± 0.04 h. For the same compound, the half-life at 200 µM in data set [2] was determined as 1.57 ± 0.127 h.
The corresponding values for `CC[C@H](C)[C@H](NC(=O)[C@H](CO)NC(=O)[C@H](CCC(=O)O)NC(=O)[C@H](CC(=O)N[C@@H]1O[C@H](CO)[C@@H](O)[C@H](O)[C@H]1O)NC(=O)[C@H](C)NC(=O)[C@H](C)NC(=O)[C@H](CCC(N)=O)NC(=O)CNC(=O)[C@H](CCC(=O)O)NC(=O)[C@H](CC(C)C)NC(=O)[C@H](Cc1ccc(O)cc1)NC(=O)[C@H](CO)NC(=O)[C@H](CO)NC(=O)[C@@H](NC(=O)[C@H](CC(=O)O)NC(=O)[C@H](CO)NC(=O)[C@@H](NC(=O)[C@H](Cc1ccccc1)NC(=O)[C@@H](NC(=O)CNC(=O)[C@H](CCC(=O)O)NC(=O)[C@H](C)NC(=O)[C@@H](N)Cc1c[nH]cn1)[C@@H](C)O)[C@@H](C)O)C(C)C)C(=O)N[C@@H](C)C(=O)N[C@@H](Cc1c[nH]c2ccccc12)C(=O)N[C@@H](CC(C)C)C(=O)N[C@H](C(=O)N[C@@H](CCCCN)C(=O)NCC(=O)N[C@@H](CCCNC(=N)N)C(=O)NCC(=O)O)C(C)C` [Glc-GLP-1-3] are 0.768 ± 0.0583 h and 2.31 ± 0.242 h.
Take `CC[C@H](C)[C@H](NC(=O)[C@H](Cc1ccccc1)NC(=O)[C@H](CCC(=O)O)NC(=O)[C@H](CCCCN)NC(=O)[C@H](C)NC(=O)[C@H](C)NC(=O)[C@H](CCC(N)=O)NC(=O)CNC(=O)[C@H](CCC(=O)O)NC(=O)[C@H](CC(C)C)NC(=O)[C@H](Cc1ccc(O)cc1)NC(=O)[C@H](CO)NC(=O)[C@H](CO)NC(=O)[C@@H](NC(=O)[C@H](CC(=O)O)NC(=O)[C@H](CO)NC(=O)[C@@H](NC(=O)[C@H](Cc1ccccc1)NC(=O)[C@@H](NC(=O)CNC(=O)[C@H](CCC(=O)O)NC(=O)[C@H](C)NC(=O)[C@@H](N)Cc1c[nH]cn1)[C@@H](C)O)[C@@H](C)O)C(C)C)C(=O)N[C@@H](C)C(=O)N[C@@H](Cc1c[nH]c2ccccc12)C(=O)N[C@@H](CC(C)C)C(=O)N[C@H](C(=O)N[C@@H](CC(=O)N[C@@H]1O[C@H](CO)[C@@H](O)[C@H](O)[C@H]1O)C(=O)NCC(=O)N[C@H](C(=O)NCC(=O)O)[C@@H](C)O)C(C)C` [Glc-GLP-1-5]: in data set [1], the half-life was determined as 0.542 ± 0.0233 h. The same compound yielded a half-life at 200 µM in data set [2] of 1.89 ± 0.197 h.
As for `CC[C@H](C)[C@H](NC(=O)[C@H](Cc1ccccc1)NC(=O)[C@H](CCC(=O)O)NC(=O)[C@H](CCCCN)NC(=O)[C@H](C)NC(=O)[C@H](C)NC(=O)[C@H](CCC(N)=O)NC(=O)CNC(=O)[C@H](CCC(=O)O)NC(=O)[C@H](CC(C)C)NC(=O)[C@H](Cc1ccc(O)cc1)NC(=O)[C@H](CO)NC(=O)[C@H](CO)NC(=O)[C@@H](NC(=O)[C@H](CC(=O)N[C@@H]1O[C@H](CO)[C@@H](O[C@@H]2O[C@H](CO)[C@@H](O[C@@H]3O[C@H](CO[C@H]4O[C@H](CO)[C@@H](O)[C@H](O)[C@@H]4O[C@@H]4O[C@H](CO)[C@@H](O[C@@H]5O[C@H](CO)[C@H](O)[C@H](O)[C@H]5O)[C@H](O)[C@H]4NC(C)=O)[C@@H](O)[C@H](O[C@H]4O[C@H](CO)[C@@H](O)[C@H](O)[C@@H]4O[C@@H]4O[C@H](CO)[C@@H](O[C@@H]5O[C@H](CO)[C@H](O)[C@H](O)[C@H]5O)[C@H](O)[C@H]4NC(C)=O)[C@@H]3O)[C@H](O)[C@H]2NC(C)=O)[C@H](O)[C@H]1O)NC(=O)[C@H](CO)NC(=O)[C@@H](NC(=O)[C@H](Cc1ccccc1)NC(=O)[C@@H](NC(=O)CNC(=O)[C@H](CCC(=O)O)NC(=O)[C@H](C)NC(=O)[C@@H](N)Cc1c[nH]cn1)[C@@H](C)O)[C@@H](C)O)C(C)C)C(=O)N[C@@H](C)C(=O)N[C@@H](Cc1c[nH]c2ccccc12)C(=O)N[C@@H](CC(C)C)C(=O)N[C@H](C(=O)N[C@@H](CCCCN)C(=O)NCC(=O)N[C@@H](CCCNC(=N)N)C(=O)NCC(=O)O)C(C)C` [Glycan-GLP-1-1(G2)], in data set [1], the half-life was determined as 0.818 ± 0.095 h. Also, the half-life at 200 µM in data set [2] worked out at 5.92 ± 0.155 h.
The compound `CC[C@H](C)[C@H](NC(=O)[C@H](Cc1ccccc1)NC(=O)[C@H](CCC(=O)O)NC(=O)[C@H](CCCCN)NC(=O)[C@H](C)NC(=O)[C@H](C)NC(=O)[C@H](CCC(N)=O)NC(=O)CNC(=O)[C@H](CCC(=O)O)NC(=O)[C@H](CC(C)C)NC(=O)[C@H](Cc1ccc(O)cc1)NC(=O)[C@H](CO)NC(=O)[C@H](CO)NC(=O)[C@@H](NC(=O)[C@H](CC(=O)N[C@@H]1O[C@H](CO)[C@@H](O[C@@H]2O[C@H](CO)[C@@H](O[C@@H]3O[C@H](CO[C@H]4O[C@H](CO)[C@@H](O)[C@H](O)[C@@H]4O[C@@H]4O[C@H](CO)[C@@H](O[C@@H]5O[C@H](CO[C@]6(C(=O)O)C[C@H](O)[C@@H](NC(C)=O)[C@H]([C@H](O)[C@H](O)CO)O6)[C@H](O)[C@H](O)[C@H]5O)[C@H](O)[C@H]4NC(C)=O)[C@@H](O)[C@H](O[C@H]4O[C@H](CO)[C@@H](O)[C@H](O)[C@@H]4O[C@@H]4O[C@H](CO)[C@@H](O[C@@H]5O[C@H](CO[C@]6(C(=O)O)C[C@H](O)[C@@H](NC(C)=O)[C@H]([C@H](O)[C@H](O)CO)O6)[C@H](O)[C@H](O)[C@H]5O)[C@H](O)[C@H]4NC(C)=O)[C@@H]3O)[C@H](O)[C@H]2NC(C)=O)[C@H](O)[C@H]1O)NC(=O)[C@H](CO)NC(=O)[C@@H](NC(=O)[C@H](Cc1ccccc1)NC(=O)[C@@H](NC(=O)CNC(=O)[C@H](CCC(=O)O)NC(=O)[C@H](C)NC(=O)[C@@H](N)Cc1c[nH]cn1)[C@@H](C)O)[C@@H](C)O)C(C)C)C(=O)N[C@@H](C)C(=O)N[C@@H](Cc1c[nH]c2ccccc12)C(=O)N[C@@H](CC(C)C)C(=O)N[C@H](C(=O)N[C@@H](CCCCN)C(=O)NCC(=O)N[C@@H](CCCNC(=N)N)C(=O)NCC(=O)O)C(C)C` [Glycan-GLP-1-1(G2S2)] displayed a half-life in data set [1] of 2.43 ± 0.0717 h. In data set [2], this compound showed a half-life at 200 µM of 12.3 ± 0.205 h.
In turn, `CC[C@H](C)[C@H](NC(=O)[C@H](CO)NC(=O)[C@H](CCC(=O)O)NC(=O)[C@H](CC(=O)N[C@@H]1O[C@H](CO)[C@@H](O[C@@H]2O[C@H](CO)[C@@H](O[C@@H]3O[C@H](CO[C@H]4O[C@H](CO)[C@@H](O)[C@H](O)[C@@H]4O[C@@H]4O[C@H](CO)[C@@H](O[C@@H]5O[C@H](CO)[C@H](O)[C@H](O)[C@H]5O)[C@H](O)[C@H]4NC(C)=O)[C@@H](O)[C@H](O[C@H]4O[C@H](CO)[C@@H](O)[C@H](O)[C@@H]4O[C@@H]4O[C@H](CO)[C@@H](O[C@@H]5O[C@H](CO)[C@H](O)[C@H](O)[C@H]5O)[C@H](O)[C@H]4NC(C)=O)[C@@H]3O)[C@H](O)[C@H]2NC(C)=O)[C@H](O)[C@H]1O)NC(=O)[C@H](C)NC(=O)[C@H](C)NC(=O)[C@H](CCC(N)=O)NC(=O)CNC(=O)[C@H](CCC(=O)O)NC(=O)[C@H](CC(C)C)NC(=O)[C@H](Cc1ccc(O)cc1)NC(=O)[C@H](CO)NC(=O)[C@H](CO)NC(=O)[C@@H](NC(=O)[C@H](CC(=O)O)NC(=O)[C@H](CO)NC(=O)[C@@H](NC(=O)[C@H](Cc1ccccc1)NC(=O)[C@@H](NC(=O)CNC(=O)[C@H](CCC(=O)O)NC(=O)[C@H](C)NC(=O)[C@@H](N)Cc1c[nH]cn1)[C@@H](C)O)[C@@H](C)O)C(C)C)C(=O)N[C@@H](C)C(=O)N[C@@H](Cc1c[nH]c2ccccc12)C(=O)N[C@@H](CC(C)C)C(=O)N[C@H](C(=O)N[C@@H](CCCCN)C(=O)NCC(=O)N[C@@H](CCCNC(=N)N)C(=O)NCC(=O)O)C(C)C` [Glycan-GLP-1-3(G2)] had a half-life in data set [1] of 3.088 ± 0.0183 h. In addition, in data set [2], the half-life at 200 µM was found to be 12.3 ± 0.162 h.
The compound `CC[C@H](C)[C@H](NC(=O)[C@H](CO)NC(=O)[C@H](CCC(=O)O)NC(=O)[C@H](CC(=O)N[C@@H]1O[C@H](CO)[C@@H](O[C@@H]2O[C@H](CO)[C@@H](O[C@@H]3O[C@H](CO[C@H]4O[C@H](CO)[C@@H](O)[C@H](O)[C@@H]4O[C@@H]4O[C@H](CO)[C@@H](O[C@@H]5O[C@H](CO[C@]6(C(=O)O)C[C@H](O)[C@@H](NC(C)=O)[C@H]([C@H](O)[C@H](O)CO)O6)[C@H](O)[C@H](O)[C@H]5O)[C@H](O)[C@H]4NC(C)=O)[C@@H](O)[C@H](O[C@H]4O[C@H](CO)[C@@H](O)[C@H](O)[C@@H]4O[C@@H]4O[C@H](CO)[C@@H](O[C@@H]5O[C@H](CO[C@]6(C(=O)O)C[C@H](O)[C@@H](NC(C)=O)[C@H]([C@H](O)[C@H](O)CO)O6)[C@H](O)[C@H](O)[C@H]5O)[C@H](O)[C@H]4NC(C)=O)[C@@H]3O)[C@H](O)[C@H]2NC(C)=O)[C@H](O)[C@H]1O)NC(=O)[C@H](C)NC(=O)[C@H](C)NC(=O)[C@H](CCC(N)=O)NC(=O)CNC(=O)[C@H](CCC(=O)O)NC(=O)[C@H](CC(C)C)NC(=O)[C@H](Cc1ccc(O)cc1)NC(=O)[C@H](CO)NC(=O)[C@H](CO)NC(=O)[C@@H](NC(=O)[C@H](CC(=O)O)NC(=O)[C@H](CO)NC(=O)[C@@H](NC(=O)[C@H](Cc1ccccc1)NC(=O)[C@@H](NC(=O)CNC(=O)[C@H](CCC(=O)O)NC(=O)[C@H](C)NC(=O)[C@@H](N)Cc1c[nH]cn1)[C@@H](C)O)[C@@H](C)O)C(C)C)C(=O)N[C@@H](C)C(=O)N[C@@H](Cc1c[nH]c2ccccc12)C(=O)N[C@@H](CC(C)C)C(=O)N[C@H](C(=O)N[C@@H](CCCCN)C(=O)NCC(=O)N[C@@H](CCCNC(=N)N)C(=O)NCC(=O)O)C(C)C` [Glycan-GLP-1-3(G2S2)] displayed a half-life in data set [1] of 6.245 ± 0.03 h. For the same compound, the “Fold in vitro half-life relative to native GLP-1, DPP-IV incubation” value in data set [1] (ratio to native GLP-1 (10.2 min), DPP-IV, 37 °C) amounted to 36.7 fold. For the same compound, the half-life at 200 µM in data set [2] came to 23.22 ± 0.148 h. The “Fold in vitro half-life relative to native GLP-1, serum incubation” value in data set [2] (ratio to native GLP-1 (55.7 min), mouse serum, 37 °C) turned out to be 25.0 fold.
